Experimental data: patent US11000033B2, “Ketone or oxime compound, and herbicide” (NISSAN CHEMICAL CORPORATION, priority 2014, dated 2021)

Tests used:
Format in all cases: in vivo
[1] = tested on: Echinochloa oryzacola Vasing.; experiment: Test Example 1: herbicidal activity, application before weed generation in submerged conditions (symbol A); details: application herbicide amount 320 g/ha
In short: (§1)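 Weeds are sown into submerged alluvial soil alongside transplanted 2.5-leaf rice, and the compound, as an emulsion diluted to a set rate, is applied onto the water before emergence. Rating on the 0–5 herbicidal-ratio scale follows 3 weeks of greenhouse growth at 25–30 °C.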

[2] = tested on: Scirpus juncoides; experiment: Test Example 1: herbicidal activity, application before weed generation in submerged conditions (symbol B); details: application herbicide amount 320 g/ha
In short: as §1

[3] = tested on: transplanted rice plant; experiment: Test Example 1: effect on crop, application before weed generation in submerged conditions (symbol a); details: application herbicide amount 320 g/ha
In short: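 Alluvial soil pots flooded to 4 cm water, sown with Echinochloa oryzacola, Scirpus juncoides and Monochoria vaginalis, then transplanted with 2.5 leaf stage rice seedlings; pre-emergence application. Greenhouse 25° C. to 30° C.; scored 0–5 by herbicidal ratio 3 weeks after application.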

[4] = tested on: Monochoria vaginalis; experiment: Test Example 2: herbicidal activity, application during weed generation in submerged conditions (symbol C); details: Table 23; application herbicide amount 320 g/ha; grade 0-5 by criteria of Test Example 1
In short: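 Each pot contained alluvial soil under 4 cm of water with seeds of all three weeds sown together. Following growth at 25° C. to 30° C. to the one- to two-leaf stage, the floodwater received diluted emulsion at a predetermined amount; visual assessment followed at 3 weeks.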

[5] = tested on: directly sowed rice plant; experiment: Test Example 3: effect on crop by foliage application, Wagner pot (symbol b); details: application herbicide amount 320 g/ha
In short: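 Plants are raised from seed in flooded paddy conditions: water stands 0.1–0.5 cm over alluvial soil, and the pot is kept in a greenhouse at 25–30 °C. Species sown are barnyardgrass (E. crus-galli var. crus-galli), Leptochloa chinensis, Cyperus difformis and rice.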

[6] = tested on: Avena fatua; experiment: Test Example 4: herbicidal effect by soil treatment (symbol I)
In short: (§2)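 Seeds were sown in sterilized diluvial soil, covered with about 1.5 cm of soil, and the soil surface was sprayed with a water-diluted emulsion of the compound at a predetermined rate. Plants grew in a greenhouse at 25° C. to 30° C.; effects were scored visually 3 weeks after application.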

[7] = tested on: Alopecurus myosuroides; experiment: Test Example 4: herbicidal effect by soil treatment (symbol J)
In short: as §2

[8] = tested on: Abutilon theophrasti; experiment: Test Example 4: herbicidal effect by soil treatment (symbol M)
In short: as §2

[9] = tested on: Amaranthus retroflexus; experiment: Test Example 4: herbicidal effect by soil treatment (symbol N)
In short: as §2

[10] = tested on: Veronica persica; experiment: Test Example 4: herbicidal effect by soil treatment (symbol R)
In short: as §2

[11] = tested on: soybean; experiment: Test Example 4: effect on crop by soil treatment (symbol d); details: for d: soybean, effect grade on crop: 320 g/ha; for d: soybean, effect on crop grade: application herbicide amount 320 g/ha
In short: (§3)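 Steps: fill box with sterilized diluvial soil; sow seed spot-like; cover with ~1.5 cm soil; grow in greenhouse (25° C. to 30° C.).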

[12] = tested on: beet; experiment: Test Example 4: effect on crop by soil treatment (symbol f); details: for f: beet, effect grade on crop: 320 g/ha; for f: beet, effect on crop grade: application herbicide amount 320 g/ha
In short: as §3

[13] = tested on: rapeseed; experiment: Test Example 4: effect on crop by soil treatment (symbol g); details: for g: rapeseed, effect grade on crop: 320 g/ha; for g: rapeseed, effect on crop grade: application herbicide amount 320 g/ha
In short: as §3

[14] = tested on: Digitaria ciliaris; experiment: Test Example 5: herbicidal effect by foliage application, plastic box (symbol F); details: 320 g/ha, 3 weeks after application
In short: (§4)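 Effect is rated 3 weeks after a foliar spray of water-diluted emulsion concentrate at a predetermined herbicide amount. Plants had grown 14 days in a 25° C. to 30° C. greenhouse from seed in sterilized diluvial soil.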

[15] = tested on: Echinochloa crus-galli var. crus-galli; experiment: Test Example 5: herbicidal effect by foliage application, plastic box (symbol H); details: 320 g/ha, 3 weeks after application
In short: as §4

[16] = application herbicide amount 320 g/ha

C=CCOC(=O)OC1=C(c2c(C)cc(C)cc2C)C(=O)C(CC(C)=NOC)C1 (stereo not drawn) [1-146]
Herbicidal effect grade, A: Echinochloa oryzacola Vasing. [1]: 5 (Herbicidal ratio of 90% or more (almost completely withered)) | Herbicidal effect grade, B: Scirpus juncoides [2]: 5 (Herbicidal ratio of 90% or more (almost completely withered)) | Effect grade on crop, a: transplanted rice plant [3]: 5 (Herbicidal ratio of 90% or more (almost completely withered)) | Herbicidal effect grade, C: Monochoria vaginalis [4]: 4 (Herbicidal ratio of 70% or higher and lower than 90%) | effect on crop b (directly sowed rice plant), grade 0-5 [5]: 5 (Herbicidal ratio of 90% or more (almost completely withered)) | I: Avena fatua, herbicidal effect grade ([6]; 320 g/ha): 4 (Herbicidal ratio of 70% or higher and lower than 90%) | J: Alopecurus myosuroides, herbicidal effect grade ([7]; 320 g/ha): 5 (Herbicidal ratio of 90% or more (almost completely withered)) | M: Abutilon theophrasti, herbicidal effect grade ([8]; 320 g/ha): 5 (Herbicidal ratio of 90% or more (almost completely withered)) | N: Amaranthus retroflexus, herbicidal effect grade ([9]; 320 g/ha): 5 (Herbicidal ratio of 90% or more (almost completely withered)) | R: Veronica persica, herbicidal effect grade ([10]; 320 g/ha): 5 (Herbicidal ratio of 90% or more (almost completely withered)) | d: soybean, effect grade on crop [11]: 0 (Herbicidal ratio of 5% or lower (almost no effect)) | f: beet, effect grade on crop [12]: 3 (Herbicidal ratio of 40% or higher and lower than 70%) | g: rapeseed, effect grade on crop [13]: 5 (Herbicidal ratio of 90% or more (almost completely withered)) | F: Digitaria ciliaris, herbicidal effect (criteria 0-5) [14]: 5 (Herbicidal ratio of 90% or more (almost completely withered)) | H: Echinochloa crus-galli var. crus-galli, herbicidal effect (criteria 0-5) [15]: 5 (Herbicidal ratio of 90% or more (almost completely withered))

Cc1cc(C)c(C2=C(O)CC(CC(=O)C(C)(C)C)C2=O)c(C)c1 (stereo not drawn) [2-022]
Herbicidal effect grade, A: Echinochloa oryzacola Vasing. [1]: 1 (Herbicidal ratio of 5% or higher and lower than 20%) | Herbicidal effect grade, B: Scirpus juncoides [2]: 0 (Herbicidal ratio of 5% or lower (almost no effect)) | Effect grade on crop, a: transplanted rice plant [3]: 3 (Herbicidal ratio of 40% or higher and lower than 70%) | Herbicidal effect grade, C: Monochoria vaginalis [4]: 0 (Herbicidal ratio of 5% or lower (almost no effect)) | effect on crop b (directly sowed rice plant), grade 0-5 [5]: 5 (Herbicidal ratio of 90% or more (almost completely withered)) | I: Avena fatua, herbicidal effect grade [6, 16]: 0 (Herbicidal ratio of 5% or lower (almost no effect)) | J: Alopecurus myosuroides, herbicidal effect grade [7, 16]: 0 (Herbicidal ratio of 5% or lower (almost no effect)) | M: Abutilon theophrasti, herbicidal effect grade [8, 16]: 0 (Herbicidal ratio of 5% or lower (almost no effect)) | N: Amaranthus retroflexus, herbicidal effect grade [9, 16]: 0 (Herbicidal ratio of 5% or lower (almost no effect)) | R: Veronica persica, herbicidal effect grade [10, 16]: 0 (Herbicidal ratio of 5% or lower (almost no effect)) | d: soybean, effect on crop grade [11]: 0 (Herbicidal ratio of 5% or lower (almost no effect)) | f: beet, effect on crop grade [12]: 0 (Herbicidal ratio of 5% or lower (almost no effect)) | g: rapeseed, effect on crop grade [13]: 0 (Herbicidal ratio of 5% or lower (almost no effect)) | F: Digitaria ciliaris, herbicidal effect grade [14]: 0 (Herbicidal ratio of 5% or lower (almost no effect)) | H: Echinochloa crus-galli var. crus-galli, herbicidal effect grade [15]: 1 (Herbicidal ratio of 5% or higher and lower than 20%)

COC(=O)C(C(=O)C1CC1)C1CC(O)=C(c2c(C)cc(C)cc2C)C1=O (stereo not drawn) [2-014]
Herbicidal effect grade, A: Echinochloa oryzacola Vasing. [1]: 4 (Herbicidal ratio of 70% or higher and lower than 90%) | Herbicidal effect grade, B: Scirpus juncoides [2]: 3 (Herbicidal ratio of 40% or higher and lower than 70%) | Effect grade on crop, a: transplanted rice plant [3]: 1 (Herbicidal ratio of 5% or higher and lower than 20%) | Herbicidal effect grade, C: Monochoria vaginalis [4]: 0 (Herbicidal ratio of 5% or lower (almost no effect)) | effect on crop b (directly sowed rice plant), grade 0-5 [5]: 5 (Herbicidal ratio of 90% or more (almost completely withered)) | I: Avena fatua, herbicidal effect grade [6, 16]: 0 (Herbicidal ratio of 5% or lower (almost no effect)) | J: Alopecurus myosuroides, herbicidal effect grade [7, 16]: 2 (Herbicidal ratio of 20% or higher and lower than 40%) | M: Abutilon theophrasti, herbicidal effect grade [8, 16]: 0 (Herbicidal ratio of 5% or lower (almost no effect)) | N: Amaranthus retroflexus, herbicidal effect grade [9, 16]: 0 (Herbicidal ratio of 5% or lower (almost no effect)) | R: Veronica persica, herbicidal effect grade [10, 16]: 0 (Herbicidal ratio of 5% or lower (almost no effect)) | d: soybean, effect on crop grade [11]: 0 (Herbicidal ratio of 5% or lower (almost no effect)) | f: beet, effect on crop grade [12]: 0 (Herbicidal ratio of 5% or lower (almost no effect)) | g: rapeseed, effect on crop grade [13]: 0 (Herbicidal ratio of 5% or lower (almost no effect)) | F: Digitaria ciliaris, herbicidal effect grade [14]: 3 (Herbicidal ratio of 40% or higher and lower than 70%) | H: Echinochloa crus-galli var. crus-galli, herbicidal effect grade [15]: 5 (Herbicidal ratio of 90% or more (almost completely withered))

CON=C(C)CC1CC(OS(=O)(=O)CC[Si](C)(C)C)=C(c2c(C)cc(C)cc2C)C1=O (stereo not drawn) [1-144]
Herbicidal effect grade, A: Echinochloa oryzacola Vasing. [1]: 5 (Herbicidal ratio of 90% or more (almost completely withered)) | Herbicidal effect grade, B: Scirpus juncoides [2]: 5 (Herbicidal ratio of 90% or more (almost completely withered)) | Effect grade on crop, a: transplanted rice plant [3]: 5 (Herbicidal ratio of 90% or more (almost completely withered)) | Herbicidal effect grade, C: Monochoria vaginalis [4]: 2 (Herbicidal ratio of 20% or higher and lower than 40%) | effect on crop b (directly sowed rice plant), grade 0-5 [5]: 5 (Herbicidal ratio of 90% or more (almost completely withered)) | I: Avena fatua, herbicidal effect grade ([6]; 320 g/ha): 2 (Herbicidal ratio of 20% or higher and lower than 40%) | J: Alopecurus myosuroides, herbicidal effect grade ([7]; 320 g/ha): 4 (Herbicidal ratio of 70% or higher and lower than 90%) | M: Abutilon theophrasti, herbicidal effect grade ([8]; 320 g/ha): 0 (Herbicidal ratio of 5% or lower (almost no effect)) | N: Amaranthus retroflexus, herbicidal effect grade ([9]; 320 g/ha): 0 (Herbicidal ratio of 5% or lower (almost no effect)) | R: Veronica persica, herbicidal effect grade ([10]; 320 g/ha): 0 (Herbicidal ratio of 5% or lower (almost no effect)) | d: soybean, effect grade on crop [11]: 0 (Herbicidal ratio of 5% or lower (almost no effect)) | f: beet, effect grade on crop [12]: 0 (Herbicidal ratio of 5% or lower (almost no effect)) | g: rapeseed, effect grade on crop [13]: 2 (Herbicidal ratio of 20% or higher and lower than 40%) | F: Digitaria ciliaris, herbicidal effect (criteria 0-5) [14]: 5 (Herbicidal ratio of 90% or more (almost completely withered)) | H: Echinochloa crus-galli var. crus-galli, herbicidal effect (criteria 0-5) [15]: 5 (Herbicidal ratio of 90% or more (almost completely withered))

CON=C(C)CC1CC(O)=C(c2c(C)cc(-c3ccc(C)cc3)cc2C)C1=O (mixture of isomers) [6-018]
Herbicidal effect grade, A: Echinochloa oryzacola Vasing. [1]: 5 (Herbicidal ratio of 90% or more (almost completely withered)) | Herbicidal effect grade, B: Scirpus juncoides [2]: 5 (Herbicidal ratio of 90% or more (almost completely withered)) | Effect grade on crop, a: transplanted rice plant [3]: 5 (Herbicidal ratio of 90% or more (almost completely withered)) | Herbicidal effect grade, C: Monochoria vaginalis [4]: 3 (Herbicidal ratio of 40% or higher and lower than 70%) | effect on crop b (directly sowed rice plant), grade 0-5 [5]: 5 (Herbicidal ratio of 90% or more (almost completely withered)) | I: Avena fatua, herbicidal effect grade [6, 16]: 0 (Herbicidal ratio of 5% or lower (almost no effect)) | J: Alopecurus myosuroides, herbicidal effect grade [7, 16]: 5 (Herbicidal ratio of 90% or more (almost completely withered)) | M: Abutilon theophrasti, herbicidal effect grade [8, 16]: 0 (Herbicidal ratio of 5% or lower (almost no effect)) | N: Amaranthus retroflexus, herbicidal effect grade [9, 16]: 0 (Herbicidal ratio of 5% or lower (almost no effect)) | R: Veronica persica, herbicidal effect grade [10, 16]: 0 (Herbicidal ratio of 5% or lower (almost no effect)) | d: soybean, effect on crop grade [11]: 0 (Herbicidal ratio of 5% or lower (almost no effect)) | f: beet, effect on crop grade [12]: 0 (Herbicidal ratio of 5% or lower (almost no effect)) | g: rapeseed, effect on crop grade [13]: 0 (Herbicidal ratio of 5% or lower (almost no effect)) | F: Digitaria ciliaris, herbicidal effect grade [14]: 5 (Herbicidal ratio of 90% or more (almost completely withered)) | H: Echinochloa crus-galli var. crus-galli, herbicidal effect grade [15]: 5 (Herbicidal ratio of 90% or more (almost completely withered))
